Reference: ChEMBL document CHEMBL3351476, “The discovery of I-BET726 (GSK1324726A), a potent tetrahydroquinoline ApoA1 up-regulator and selective BET bromodomain inhibitor” (J Med Chem, 2014)
Values after ≈ are worked out from the molar mass of the structure shown.

Key:
PBMC = assay: Inhibition of LPS-induced IL6 production in human PBMC after 18 to 24 hrs by immunoassay; format: functional, cell-based
Blood = assay: Inhibition of LPS-induced IL6 production in human whole blood after 24 hrs by immunoassay; format: functional, tissue-based
[1] = target: T1, Bromodomain-containing protein 3 (Homo sapiens, UniProt Q15059); assay: Inhibition of human BRD3 bromodomain 1 by BROMOscan assay
T1 sequence (Q15059 whole entry): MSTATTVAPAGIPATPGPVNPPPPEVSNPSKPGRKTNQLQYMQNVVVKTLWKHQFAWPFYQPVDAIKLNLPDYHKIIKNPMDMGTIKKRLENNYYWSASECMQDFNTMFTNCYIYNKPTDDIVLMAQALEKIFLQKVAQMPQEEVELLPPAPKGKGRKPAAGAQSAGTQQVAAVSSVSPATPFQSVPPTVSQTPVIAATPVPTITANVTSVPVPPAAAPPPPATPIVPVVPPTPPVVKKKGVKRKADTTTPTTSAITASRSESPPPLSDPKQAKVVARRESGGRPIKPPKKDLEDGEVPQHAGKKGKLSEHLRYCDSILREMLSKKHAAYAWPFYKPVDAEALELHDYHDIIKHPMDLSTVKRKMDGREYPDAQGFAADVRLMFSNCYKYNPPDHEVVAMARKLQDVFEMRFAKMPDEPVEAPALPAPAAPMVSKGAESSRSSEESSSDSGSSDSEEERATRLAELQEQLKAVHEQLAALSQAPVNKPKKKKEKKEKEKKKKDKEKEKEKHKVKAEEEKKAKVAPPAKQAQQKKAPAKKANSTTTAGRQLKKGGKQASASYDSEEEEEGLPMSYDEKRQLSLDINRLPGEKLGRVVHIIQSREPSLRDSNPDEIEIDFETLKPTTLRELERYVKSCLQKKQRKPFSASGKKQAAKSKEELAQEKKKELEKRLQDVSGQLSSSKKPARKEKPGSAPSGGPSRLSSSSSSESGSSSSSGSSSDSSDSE

Peregrin = Peregrin (Homo sapiens, UniProt P55201); assay: Inhibition of human BRPF1 by BROMOscan assay
[2] = target: Bromodomain-containing protein 9 (Homo sapiens, UniProt Q9H8M2); assay: Inhibition of human BRD9 by BROMOscan assay
[3] = Fraction unbound in human blood by rapid equilibrium dialysis method; format: ADME, tissue-based
[4] = target: Bromodomain adjacent to zinc finger domain protein 2B (Homo sapiens, UniProt Q9UIF8); assay: Inhibition of BAZ2B (unknown origin) by BROMOscan assay
[5] = target: Histone acetyltransferase KAT2A (Homo sapiens, UniProt Q92830); assay: Inhibition of human GCN5 by BROMOscan assay
[6] = target: Nucleosome-remodeling factor subunit BPTF (Homo sapiens, UniProt Q12830); assay: Inhibition of human BPTF by BROMOscan assay
[7] = target: Bromodomain and PHD finger-containing protein 3 (Homo sapiens, UniProt Q9ULD4); assay: Inhibition of human BRPF3 by BROMOscan assay
Bromodomain and PHD finger-containing protein 3, sequence (Q9ULD4 whole entry): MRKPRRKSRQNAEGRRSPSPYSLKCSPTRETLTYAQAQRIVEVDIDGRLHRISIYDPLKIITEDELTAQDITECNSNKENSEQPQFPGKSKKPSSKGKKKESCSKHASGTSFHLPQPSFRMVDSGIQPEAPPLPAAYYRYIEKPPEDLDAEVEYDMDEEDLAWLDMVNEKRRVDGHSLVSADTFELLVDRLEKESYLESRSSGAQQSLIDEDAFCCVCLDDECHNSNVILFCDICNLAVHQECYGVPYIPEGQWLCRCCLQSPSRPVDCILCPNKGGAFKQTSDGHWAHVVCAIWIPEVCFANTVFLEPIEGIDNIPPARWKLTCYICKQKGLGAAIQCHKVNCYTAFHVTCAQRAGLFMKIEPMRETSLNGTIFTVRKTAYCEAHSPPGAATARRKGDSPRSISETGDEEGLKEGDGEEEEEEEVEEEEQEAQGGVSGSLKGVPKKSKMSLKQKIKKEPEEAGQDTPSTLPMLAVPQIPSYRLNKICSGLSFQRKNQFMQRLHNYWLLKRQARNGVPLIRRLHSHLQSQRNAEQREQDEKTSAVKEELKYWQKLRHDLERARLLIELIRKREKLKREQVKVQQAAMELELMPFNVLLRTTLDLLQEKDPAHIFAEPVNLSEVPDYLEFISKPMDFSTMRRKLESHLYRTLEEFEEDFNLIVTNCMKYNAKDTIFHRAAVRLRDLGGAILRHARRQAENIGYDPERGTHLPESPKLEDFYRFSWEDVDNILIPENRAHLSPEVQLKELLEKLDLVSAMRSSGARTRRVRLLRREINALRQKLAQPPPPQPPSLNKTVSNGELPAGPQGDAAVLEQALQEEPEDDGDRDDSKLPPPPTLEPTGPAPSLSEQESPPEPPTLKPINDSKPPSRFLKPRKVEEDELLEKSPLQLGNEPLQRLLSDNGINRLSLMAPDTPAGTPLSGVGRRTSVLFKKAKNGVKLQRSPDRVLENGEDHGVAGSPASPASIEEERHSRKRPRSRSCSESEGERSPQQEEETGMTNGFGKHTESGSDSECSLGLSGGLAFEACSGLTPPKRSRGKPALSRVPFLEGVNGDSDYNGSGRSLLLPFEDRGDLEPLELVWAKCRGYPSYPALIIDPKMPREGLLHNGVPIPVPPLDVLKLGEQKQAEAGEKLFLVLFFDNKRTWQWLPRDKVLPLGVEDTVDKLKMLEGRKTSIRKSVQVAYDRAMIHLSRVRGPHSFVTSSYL

CREB-binding protein = CREB-binding protein (Homo sapiens, UniProt Q92793); assay: Binding affinity to CREBBP (unknown origin) by ITC method
[8] = AUC (0 to t) in beagle dog at 3 mg/kg, po; format: ADME, organism-based, Canis lupus familiaris; design: dose 3 mg/kg, route oral; details: plasma
[9] = Oral bioavailability in Balb/c mouse at 3 mg/kg; format: ADME, organism-based; details: in vivo
[10] = Solubility of the compound in fasted state simulated intestinal fluid at 125 ug/ml after 16 hrs by HPLC analysis; format: ADME; details: fasted state simulated intestinal fluid
[11] = target: Histone acetyltransferase p300 (Homo sapiens, UniProt Q09472); assay: Inhibition of human EP300 by BROMOscan assay
Histone acetyltransferase p300, sequence (Q09472 whole entry, the tested form may be a part): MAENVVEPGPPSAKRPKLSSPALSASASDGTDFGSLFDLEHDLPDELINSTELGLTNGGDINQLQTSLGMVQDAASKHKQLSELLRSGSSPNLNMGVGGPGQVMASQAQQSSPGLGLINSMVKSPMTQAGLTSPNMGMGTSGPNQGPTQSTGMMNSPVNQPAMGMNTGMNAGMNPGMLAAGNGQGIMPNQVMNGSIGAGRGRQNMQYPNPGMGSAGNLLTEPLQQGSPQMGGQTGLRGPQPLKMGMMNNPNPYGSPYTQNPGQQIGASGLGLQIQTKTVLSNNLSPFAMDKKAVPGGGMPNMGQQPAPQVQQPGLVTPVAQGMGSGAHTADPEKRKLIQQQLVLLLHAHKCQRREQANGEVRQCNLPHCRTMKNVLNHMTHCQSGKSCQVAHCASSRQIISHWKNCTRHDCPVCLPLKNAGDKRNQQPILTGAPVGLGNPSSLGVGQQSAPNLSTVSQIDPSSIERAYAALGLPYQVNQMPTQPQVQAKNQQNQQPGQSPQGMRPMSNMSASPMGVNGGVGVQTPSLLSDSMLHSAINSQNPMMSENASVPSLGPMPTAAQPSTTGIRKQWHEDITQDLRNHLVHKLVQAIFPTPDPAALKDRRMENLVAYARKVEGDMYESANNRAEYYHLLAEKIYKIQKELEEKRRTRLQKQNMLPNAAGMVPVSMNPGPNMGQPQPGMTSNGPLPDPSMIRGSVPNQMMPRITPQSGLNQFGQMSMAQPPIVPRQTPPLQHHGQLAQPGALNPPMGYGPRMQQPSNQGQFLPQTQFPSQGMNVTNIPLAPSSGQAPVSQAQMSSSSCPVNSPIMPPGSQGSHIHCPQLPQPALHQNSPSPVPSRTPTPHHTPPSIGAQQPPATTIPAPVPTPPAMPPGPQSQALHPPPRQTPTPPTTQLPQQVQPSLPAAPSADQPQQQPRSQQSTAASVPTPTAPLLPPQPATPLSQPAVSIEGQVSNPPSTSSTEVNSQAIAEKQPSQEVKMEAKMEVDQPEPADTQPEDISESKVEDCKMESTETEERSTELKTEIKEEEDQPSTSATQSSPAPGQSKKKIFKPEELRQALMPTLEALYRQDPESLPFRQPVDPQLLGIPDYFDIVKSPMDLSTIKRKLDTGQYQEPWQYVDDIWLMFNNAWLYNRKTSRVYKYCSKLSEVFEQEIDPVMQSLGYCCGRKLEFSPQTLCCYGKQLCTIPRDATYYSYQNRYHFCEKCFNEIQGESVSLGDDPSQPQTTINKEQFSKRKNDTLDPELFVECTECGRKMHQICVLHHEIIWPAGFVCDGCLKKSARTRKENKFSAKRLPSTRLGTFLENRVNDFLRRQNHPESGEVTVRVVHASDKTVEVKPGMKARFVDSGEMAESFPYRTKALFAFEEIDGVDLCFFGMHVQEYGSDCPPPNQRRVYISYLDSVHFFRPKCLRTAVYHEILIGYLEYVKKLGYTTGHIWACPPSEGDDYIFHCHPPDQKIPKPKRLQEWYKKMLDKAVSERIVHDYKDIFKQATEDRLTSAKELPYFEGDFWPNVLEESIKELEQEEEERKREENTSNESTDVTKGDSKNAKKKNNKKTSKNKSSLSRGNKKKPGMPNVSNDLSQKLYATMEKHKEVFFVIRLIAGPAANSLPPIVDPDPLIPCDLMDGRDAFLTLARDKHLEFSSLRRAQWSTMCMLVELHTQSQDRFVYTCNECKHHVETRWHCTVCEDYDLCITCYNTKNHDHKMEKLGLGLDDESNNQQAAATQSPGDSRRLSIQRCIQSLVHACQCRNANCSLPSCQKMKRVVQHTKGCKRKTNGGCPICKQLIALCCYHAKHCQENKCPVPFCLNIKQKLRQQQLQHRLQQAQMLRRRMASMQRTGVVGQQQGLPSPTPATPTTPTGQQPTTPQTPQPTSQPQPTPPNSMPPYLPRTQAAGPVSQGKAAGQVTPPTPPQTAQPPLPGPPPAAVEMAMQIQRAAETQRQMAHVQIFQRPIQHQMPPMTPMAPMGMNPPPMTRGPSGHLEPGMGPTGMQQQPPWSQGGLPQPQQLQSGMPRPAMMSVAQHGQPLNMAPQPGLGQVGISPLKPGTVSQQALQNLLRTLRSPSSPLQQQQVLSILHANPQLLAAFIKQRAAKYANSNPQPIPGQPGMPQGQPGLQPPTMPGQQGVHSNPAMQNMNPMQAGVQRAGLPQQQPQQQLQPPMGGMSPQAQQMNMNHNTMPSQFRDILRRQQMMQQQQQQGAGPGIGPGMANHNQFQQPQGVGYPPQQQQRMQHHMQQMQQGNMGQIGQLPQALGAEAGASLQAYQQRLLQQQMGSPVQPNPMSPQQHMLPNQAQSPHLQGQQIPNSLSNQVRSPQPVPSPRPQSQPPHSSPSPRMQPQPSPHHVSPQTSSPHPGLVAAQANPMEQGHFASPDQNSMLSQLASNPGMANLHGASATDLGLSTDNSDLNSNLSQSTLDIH

[12] = target: T1, Bromodomain-containing protein 3; assay: Binding affinity to His6-tagged BRD3 (1 to 475 aa) (unknown origin) by SPR method
[13] = target: T2, Bromodomain testis-specific protein (Homo sapiens, UniProt Q58F21); assay: Inhibition of human BRDT bromodomain 1 by BROMOscan assay
Cytochrome P450 2C9 = Cytochrome P450 2C9 (Homo sapiens, UniProt P11712); assay: Inhibition of CYP2C9 (unknown origin) expressed in Escherichia coli bactosomes using 7-methoxy-4-trifluoromethylcoumarin-3-acetic acid as substrate after 10 mins by fluorescence assay; format: ADME
Cytochrome P450 2C9, sequence (P11712 whole entry): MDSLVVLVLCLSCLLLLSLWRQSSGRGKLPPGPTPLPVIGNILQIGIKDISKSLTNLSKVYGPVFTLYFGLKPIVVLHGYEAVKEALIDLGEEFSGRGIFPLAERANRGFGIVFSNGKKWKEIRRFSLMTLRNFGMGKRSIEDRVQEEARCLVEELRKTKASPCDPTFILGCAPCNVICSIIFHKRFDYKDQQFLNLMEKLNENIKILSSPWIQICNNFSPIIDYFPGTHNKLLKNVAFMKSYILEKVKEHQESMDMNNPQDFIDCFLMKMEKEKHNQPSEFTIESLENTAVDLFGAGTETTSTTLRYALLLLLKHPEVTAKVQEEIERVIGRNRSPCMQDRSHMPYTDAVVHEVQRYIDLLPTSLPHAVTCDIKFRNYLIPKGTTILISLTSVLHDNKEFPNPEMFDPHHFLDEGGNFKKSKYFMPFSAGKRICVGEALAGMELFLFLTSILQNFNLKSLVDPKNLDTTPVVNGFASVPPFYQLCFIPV

Hepatocyte = assay: Clearance in human hepatocytes assessed per gram of tissue at 1 uM by LC-MS/MS analysis; format: ADME, cell-based
HepG2 = assay: Upregulation of ApoA1 in human HepG2 cells after 16 hrs by luciferase reporter assay relative to control; format: functional
[14] = target: T2, Bromodomain testis-specific protein; assay: Inhibition of human BRDT bromodomain 2 by BROMOscan assay
[15] = Blood clearance in Cynomolgus monkey at 1 mg/kg, iv as infusion and 3 mg/kg, po; format: ADME, organism-based, Macaca fascicularis; details: whole blood
[16] = target: Bromodomain-containing protein 1 (Homo sapiens, UniProt O95696); assay: Inhibition of human BRD1 by BROMOscan assay
[17] = AUC (0 to t) in Cynomolgus monkey at 2 mg/kg, po; format: ADME, organism-based, Macaca fascicularis; design: dose 2 mg/kg, route oral; details: plasma
[18] = target: Bromodomain-containing protein 2 (Homo sapiens, UniProt P25440); assay: Inhibition of human BRD2 bromodomain 1 by BROMOscan assay
Cytochrome P450 3A4 = Cytochrome P450 3A4 (Homo sapiens, UniProt P08684); assay: Time-dependent inhibition of human recombinant CYP3A4 expressed in Escherichia coli bactosomes using diethoxyfluorescein as substrate by fluorescence assay; format: ADME; details: recombinant enzyme

Compound CC(=O)N1c2ccc(-c3ccc(C(=O)O)cc3)cc2[C@H](Nc2ccc(Cl)cc2)C[C@@H]1C has an IC50 (PBMC) of 0.0501 µM, an IC50 (Blood) of 0.398 µM and an IC50 [1] of 0.000631 µM. It also gave an IC50 (Peregrin) greater than 0.00398 µM, an IC50 [2] greater than 31.6 µM and a fraction unbound [3] of 0.017. It also gave an IC50 [4] greater than 31.6 µM, an IC50 [5] greater than 0.316 µM and an IC50 [6] greater than 31.6 µM. The IC50 [7] was greater than 0.001 µM, the Kd (CREB-binding protein) was 6.3 µM and the AUC(0-t) [8] was 5900 ng·h/mL. For the same compound, the bioavailability [9] was 45%, the solubility at 16 h [10] was 106 µg/mL (≈ 244 µM) and the IC50 [11] was 31.6 µM. It also gave a Kd [12] of 0.02 µM, an IC50 [13] of 31.6 µM and an IC50 (Cytochrome P450 2C9) of 13 µM. For the same compound, the CLH (Hepatocyte) was less than 0.85 mL/min/g, the pEC170 (HepG2) was 8.1 and the IC50 [14] was 31.6 µM. For the same compound, the clearance [15] was 3 mL/min/kg, the IC50 [16] was greater than 20 µM and the AUC(0-t) [17] was 11000 ng·h/mL. For the same compound, the IC50 [18] was greater than 31.6 µM and the “inhibition (INH)” value (Cytochrome P450 3A4) was “Active”.
